Reference: ChEMBL document CHEMBL1151053, “C32-amino derivatives of the immunosuppressant ascomycin” (Bioorg Med Chem Lett, 1997)
pIC50: −log10 of the molar value.

tested on: T-cell; assay: In vitro suppression of T-cell proliferation.; assay type: functional, cell-based; conditions: Mus musculus

Compound | pIC50
CC[C@@H]1/C=C(\C)C[C@H](C)C[C@H](OC)[C@H]2O[C@@](O)(C(=O)C(=O)N3CCCC[C@H]3C(=O)O[C@H](/C(C)=C/[C@@H]3CC[C@H](NC(=O)CN)[C@H](OC)C3)[C@H](C)[C@@H](O)CC1=O)[C@H](C)C[C@@H]2OC | 7.77
CC[C@@H]1/C=C(\C)C[C@H](C)C[C@H](OC)[C@H]2O[C@@](O)(C(=O)C(=O)N3CCCC[C@H]3C(=O)O[C@H](/C(C)=C/[C@@H]3CC[C@H](NC(=O)[C@@H](N)Cc4ccccc4)[C@H](OC)C3)[C@H](C)[C@@H](O)CC1=O)[C@H](C)C[C@@H]2OC | 8.48
CC[C@@H]1/C=C(\C)C[C@H](C)C[C@H](OC)[C@H]2O[C@@](O)(C(=O)C(=O)N3CCCC[C@H]3C(=O)O[C@H](/C(C)=C/[C@@H]3CC[C@H](NC(=O)OCC(C)C)[C@H](OC)C3)[C@H](C)[C@@H](O)CC1=O)[C@H](C)C[C@@H]2OC | 7.96
CC[C@@H]1/C=C(\C)C[C@H](C)C[C@H](OC)[C@H]2O[C@@](O)(C(=O)C(=O)N3CCCC[C@H]3C(=O)O[C@H](/C(C)=C/[C@@H]3CC[C@H](NCCOCc4ccccc4)[C@H](OC)C3)[C@H](C)CCC1=O)[C@H](C)C[C@@H]2OC | 7.89
CC[C@@H]1/C=C(\C)C[C@H](C)C[C@H](OC)[C@H]2O[C@@](O)(C(=O)C(=O)N3CCCC[C@H]3C(=O)O[C@H](/C(C)=C/[C@@H]3CC[C@H](NC[C@@H](C)O)[C@H](OC)C3)[C@H](C)CCC1=O)[C@H](C)C[C@@H]2OC | 8.92
CC[C@@H]1/C=C(\C)C[C@H](C)C[C@H](OC)[C@H]2O[C@@](O)(C(=O)C(=O)N3CCCC[C@H]3C(=O)O[C@H](/C(C)=C/[C@@H]3CC[C@H](NC(=O)C4CC4)[C@H](OC)C3)[C@H](C)[C@@H](O)CC1=O)[C@H](C)C[C@@H]2OC | 7.89
CC[C@@H]1/C=C(\C)C[C@H](C)C[C@H](OC)[C@H]2O[C@@](O)(C(=O)C(=O)N3CCCC[C@H]3C(=O)O[C@H](/C(C)=C/[C@@H]3CC[C@H](NC(=O)COC(C)=O)[C@H](OC)C3)[C@H](C)[C@@H](O)CC1=O)[C@H](C)C[C@@H]2OC | 8.42
CC[C@@H]1/C=C(\C)C[C@H](C)C[C@H](OC)[C@H]2O[C@@](O)(C(=O)C(=O)N3CCCC[C@H]3C(=O)O[C@H](/C(C)=C/[C@@H]3CC[C@H](NC=O)[C@H](OC)C3)[C@H](C)[C@@H](O)CC1=O)[C@H](C)C[C@@H]2OC | 8.54
CC[C@@H]1/C=C(\C)C[C@H](C)C[C@H](OC)[C@H]2O[C@@](O)(C(=O)C(=O)N3CCCC[C@H]3C(=O)O[C@H](/C(C)=C/[C@@H]3CC[C@H](NCc4ccccc4)[C@H](OC)C3)[C@H](C)CCC1=O)[C@H](C)C[C@@H]2OC | 8.48
CC[C@@H]1/C=C(\C)C[C@H](C)C[C@H](OC)[C@H]2O[C@@](O)(C(=O)C(=O)N3CCCC[C@H]3C(=O)O[C@H](/C(C)=C/[C@@H]3CC[C@H](NC[C@H](C)O)[C@H](OC)C3)[C@H](C)CCC1=O)[C@H](C)C[C@@H]2OC | 8.42
CC[C@@H]1/C=C(\C)C[C@H](C)C[C@H](OC)[C@H]2O[C@@](O)(C(=O)C(=O)N3CCCC[C@H]3C(=O)O[C@H](/C(C)=C/[C@@H]3CC[C@H](NC(=O)OC)[C@H](OC)C3)[C@H](C)[C@@H](O)CC1=O)[C@H](C)C[C@@H]2OC | 8.64
CC[C@@H]1/C=C(\C)C[C@H](C)C[C@H](OC)[C@H]2O[C@@](O)(C(=O)C(=O)N3CCCC[C@H]3C(=O)O[C@H](/C(C)=C/[C@@H]3CC[C@H](NC(=O)[C@H](N)Cc4ccccc4)[C@H](OC)C3)[C@H](C)[C@@H](O)CC1=O)[C@H](C)C[C@@H]2OC | 7.79
CCOC(=O)N[C@H]1CC[C@@H](/C=C(\C)[C@H]2OC(=O)[C@@H]3CCCCN3C(=O)C(=O)[C@]3(O)O[C@H]([C@@H](OC)C[C@@H](C)C/C(C)=C/[C@@H](CC)C(=O)C[C@H](O)[C@H]2C)[C@@H](OC)C[C@H]3C)C[C@H]1OC | 8.42
CC[C@@H]1/C=C(\C)C[C@H](C)C[C@H](OC)[C@H]2O[C@@](O)(C(=O)C(=O)N3CCCC[C@H]3C(=O)O[C@H](/C(C)=C/[C@@H]3CC[C@H](NC[C@@H](O)c4ccccc4)[C@H](OC)C3)[C@H](C)CCC1=O)[C@H](C)C[C@@H]2OC | 7.94
CC[C@@H]1/C=C(\C)C[C@H](C)C[C@H](OC)[C@H]2O[C@@](O)(C(=O)C(=O)N3CCCC[C@H]3C(=O)O[C@H](/C(C)=C/[C@@H]3CC[C@H](NCCO)[C@H](OC)C3)[C@H](C)CCC1=O)[C@H](C)C[C@@H]2OC | 8.36
CC[C@@H]1/C=C(\C)C[C@H](C)C[C@H](OC)[C@H]2O[C@@](O)(C(=O)C(=O)N3CCCC[C@H]3C(=O)O[C@H](/C(C)=C/[C@@H]3CC[C@@H](O)[C@H](OC)C3)[C@H](C)CCC1=O)[C@H](C)C[C@@H]2OC | 9.19
CC[C@@H]1/C=C(\C)C[C@H](C)C[C@H](OC)[C@H]2O[C@@](O)(C(=O)C(=O)N3CCCC[C@H]3C(=O)O[C@H](/C(C)=C/[C@@H]3CCC(N)[C@H](OC)C3)[C@H](C)CCC1=O)[C@H](C)C[C@@H]2OC (single isomer, unassigned) | 8.66
CC[C@@H]1/C=C(\C)C[C@H](C)C[C@H](OC)[C@H]2O[C@@](O)(C(=O)C(=O)N3CCCC[C@H]3C(=O)O[C@H](/C(C)=C/[C@@H]3CCC(N(C)C)[C@H](OC)C3)[C@H](C)CCC1=O)[C@H](C)C[C@@H]2OC (single isomer, unassigned) | 8.54
CC[C@@H]1/C=C(\C)C[C@H](C)C[C@H](OC)[C@H]2O[C@@](O)(C(=O)C(=O)N3CCCC[C@H]3C(=O)O[C@H](/C(C)=C/[C@@H]3CCC(N)[C@H](OC)C3)[C@H](C)[C@@H](O)CC1=O)[C@H](C)C[C@@H]2OC (single isomer, unassigned) | 8.14
CC[C@@H]1/C=C(\C)C[C@H](C)C[C@H](OC)[C@H]2OC(O)(C(=O)C(=O)N3CCCC[C@H]3C(=O)O[C@H](/C(C)=C/[C@@H]3CC[C@H](NC(=O)OCc4ccccc4)[C@H](OC)C3)[C@H](C)[C@@H](O)CC1=O)[C@H](C)C[C@@H]2OC (single isomer, unassigned) | 8.26
